In PubChem BioAssay (NCI):
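96-well plates; 48 h exposure; 5 concentrations. Endpoints by linear interpolation between flanking doses. Not reached: highest tested concentration assigned. Abbreviation: GI50, concentration required for 50% inhibition of growth. At the TGI there is no net growth.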

Tests used:
Assay in all cases: NCI anticancer screen, dose series, 48 h; in the data active = GI50 below about 0.43 µM; inactive = the rest
[1] = tested on: HOP-62 NSCLC
[2] = tested on: OVCAR-3 ovarian
[3] = tested on: K-562 leukemia
[4] = tested on: SR leukemia
[5] = tested on: M14 melanoma
[6] = tested on: OVCAR-5 ovarian
[7] = tested on: UACC-257 melanoma
[8] = tested on: NCI-H522 lung
[9] = tested on: COLO 205 colon
[10] = tested on: SK-OV-3 ovarian
[11] = tested on: SW-620 colon
[12] = tested on: SNB-75 CNS
[13] = tested on: BT-549 breast
[14] = tested on: SF-539 CNS
[15] = tested on: MCF7 breast
[16] = tested on: UACC-62 melanoma
[17] = tested on: NCI-H460 lung
[18] = tested on: U251 CNS
[19] = tested on: HCC-2998 colon
[20] = tested on: CCRF-CEM leukemia
[21] = tested on: SK-MEL-28 melanoma
[22] = tested on: SF-295 CNS
[23] = tested on: A549 NSCLC
[24] = tested on: OVCAR-4 ovarian
[25] = tested on: SF-268 CNS
[26] = tested on: T-47D breast
[27] = tested on: RXF 393 renal
[28] = tested on: TK-10 renal
[29] = tested on: A498 renal
[30] = tested on: HCT-15 colon
[31] = tested on: HS 578T breast
[32] = tested on: RPMI-8226 leukemia
[33] = tested on: IGROV1 ovarian
[34] = tested on: KM12 colon
[35] = tested on: UO-31 renal
[36] = tested on: LOX IMVI melanoma
[37] = tested on: MDA-MB-435
[38] = tested on: DU-145 prostate
[39] = tested on: HOP-92 NSCLC
[40] = tested on: NCI-H226 lung
[41] = tested on: MDA-MB-231 breast
[42] = tested on: PC-3 prostate
[43] = tested on: NCI-H23 lung
[44] = tested on: SK-MEL-2 melanoma
[45] = tested on: NCI/ADR-RES ovarian
[46] = tested on: SK-MEL-5 melanoma
[47] = tested on: HCT-116 colon
[48] = tested on: SNB-19 CNS
[49] = tested on: HT29 colon
[50] = tested on: ACHN renal
[51] = tested on: SN12C renal
[52] = tested on: OVCAR-8 ovarian
[53] = tested on: HL-60(TB) leukemia
[54] = tested on: MALME-3M melanoma
[55] = tested on: EKVX NSCLC
[56] = tested on: 786-0 renal
[57] = tested on: MOLT-4 leukemia
[58] = tested on: CAKI-1 renal

Nc1ccccc1NC(=O)c1ccc(CSc2nc(N3CCOCC3)c3cccn3n2)cc1
4.54 µM: TGI [7] | TGI [49]
4.59 µM: TGI [13]
2.51 µM: TGI [27]
1.26 µM: TGI [32]
1 µM: TGI [37]
10.5 µM: TGI [25]
2.09 µM: TGI [8]
2.82 µM: TGI [16]
3.22 µM: TGI [36]
1.88 µM: TGI [44]
5.61 µM: TGI [18]
5.34 µM: TGI [29]
0.991 µM: TGI [39]
2.96 µM: TGI [9]
3.61 µM: TGI [35]
45.9 µM: TGI [1]
6.73 µM: TGI [2]
3.95 µM: TGI [40]
inactive: GI50 [1] 1.49 µM | GI50 [2] 1.05 µM | GI50 [5] 0.756 µM | GI50 [6] 0.985 µM | GI50 [7] 0.549 µM | GI50 [9] 1.07 µM | GI50 [10] 0.79 µM | GI50 [11] 0.44 µM | GI50 [13] 1.14 µM | GI50 [14] 0.773 µM | GI50 [17] 0.524 µM | GI50 [18] 0.565 µM | GI50 [19] 2 µM | GI50 [21] 1 µM | GI50 [22] 1.6 µM | GI50 [23] 0.977 µM | GI50 [24] 2.47 µM | GI50 [25] 0.732 µM | GI50 [26] 0.498 µM | GI50 [27] 0.464 µM | GI50 [29] 1.09 µM | GI50 [30] 0.588 µM | GI50 [31] 0.781 µM | GI50 [33] 1.18 µM | GI50 [34] 1.14 µM | GI50 [36] 0.49 µM | GI50 [38] 1.63 µM | GI50 [40] 1.26 µM | GI50 [41] 0.806 µM | GI50 [42] 0.752 µM | GI50 [43] 1.52 µM | GI50 [45] 0.445 µM | GI50 [48] 2.67 µM | GI50 [50] 0.863 µM | GI50 [51] 1.38 µM | GI50 [52] 0.509 µM | GI50 [54] 0.834 µM | GI50 [55] 1.08 µM | GI50 [56] 0.988 µM
6.43 µM: TGI [10]
41.4 µM: TGI [42]
15.6 µM: TGI [12]
5.48 µM: TGI [56]
> 100 µM: TGI [3] | TGI [4] | TGI [5] | TGI [6] | TGI [11] | TGI [14] | TGI [15] | TGI [17] | TGI [20] | TGI [23] | TGI [24] | TGI [26] | TGI [30] | TGI [31] | TGI [33] | TGI [34] | TGI [43] | TGI [45] | TGI [47] | TGI [48] | TGI [50] | TGI [51] | TGI [52] | TGI [54] | TGI [55]
37.7 µM: TGI [38]
11.7 µM: TGI [41]
active: GI50 [3] 0.312 µM | GI50 [4] 0.301 µM | GI50 [8] 0.339 µM | GI50 [12] 0.32 µM | GI50 [15] 0.335 µM | GI50 [16] 0.412 µM | GI50 [20] 0.246 µM | GI50 [28] 0.163 µM | GI50 [32] 0.311 µM | GI50 [35] 0.412 µM | GI50 [37] 0.27 µM | GI50 [39] 0.15 µM | GI50 [44] 0.314 µM | GI50 [46] 0.415 µM | GI50 [47] 0.379 µM | GI50 [49] 0.411 µM | GI50 [53] 0.273 µM
1.61 µM: TGI [28] | TGI [46]
31.3 µM: TGI [21]
17.2 µM: TGI [22]
0.961 µM: TGI [53]
7.41 µM: TGI [19]

NCCCNc1ccc2c(c1)[n+]([O-])c1ccccc1[n+]2[O-]
67.2 µM: TGI [57]
49.2 µM: TGI [16]
57.6 µM: TGI [41] | TGI [53]
47.8 µM: TGI [29]
93.5 µM: TGI [1]
53.9 µM: TGI [14]
61.4 µM: TGI [4]
30.7 µM: TGI [8]
69.6 µM: TGI [26]
91.9 µM: TGI [18]
77.7 µM: TGI [50]
64 µM: TGI [13]
53.6 µM: TGI [17]
41.5 µM: TGI [33]
80.3 µM: TGI [34]
66.3 µM: TGI [30]
55.9 µM: TGI [27]
50.4 µM: TGI [10]
46.6 µM: TGI [54]
62.6 µM: TGI [39]
45.2 µM: TGI [9]
31.8 µM: TGI [46]
60 µM: TGI [31]
54.4 µM: TGI [32]
94.3 µM: TGI [36]
63.7 µM: TGI [47]
50.5 µM: TGI [2]
92.6 µM: TGI [24]
83.2 µM: TGI [7]
70.8 µM: TGI [38]
45.5 µM: TGI [40]
97.5 µM: TGI [43]
91.4 µM: TGI [20]
> 100 µM: TGI [3] | TGI [5] | TGI [6] | TGI [11] | TGI [15] | TGI [19] | TGI [21] | TGI [22] | TGI [23] | TGI [25] | TGI [28] | TGI [35] | TGI [37] | TGI [42] | TGI [45] | TGI [48] | TGI [49] | TGI [51] | TGI [52] | TGI [55] | TGI [56]

CC12CN(CC[N+](C)(C)C)CC1(C)C1CCC2O1 (centres undefined)
> 100 µM: TGI [1] | TGI [2] | TGI [3] | TGI [4] | TGI [5] | TGI [6] | TGI [7] | TGI [8] | TGI [9] | TGI [10] | TGI [11] | TGI [12] | TGI [13] | TGI [14] | TGI [15] | TGI [16] | TGI [17] | TGI [18] | TGI [19] | TGI [20] | TGI [21] | TGI [22] | TGI [23] | TGI [24] | TGI [25] | TGI [26] | TGI [27] | TGI [28] | TGI [29] | TGI [30] | TGI [31] | TGI [32] | TGI [33] | TGI [34] | TGI [35] | TGI [36] | TGI [37] | TGI [38] | TGI [39] | TGI [57] | TGI [40] | TGI [41] | TGI [42] | TGI [43] | TGI [44] | TGI [45] | TGI [46] | TGI [47] | TGI [48] | TGI [49] | TGI [50] | TGI [51] | TGI [52] | TGI [54] | TGI [55] | TGI [56] | TGI [58]
